Test results taken from US11440887B2, “Substituted 1,2,3,4-tetrahydroquinolines as inhibitors of repair enzyme 8-oxoguanine deoxyribonucleic acid glycosylase activity” (The Board of Trustees of the Leland Stanford Junior …, priority 2017, dated 2022).

Tests used:
NUDT16 = NUDT16 (Homo sapiens (Human), UniProt Q96DE0); experiment: NUDT16 assay; assay type: biochemical; conditions: 20 μM
Protocol: After 1 h incubation at 37° C., 5 μL of this reaction solution was added to 20 μL Kinase-Glo Luminescent Kinase Assay reaction solution (prepared as instructed for the ATP determination kit) in a 96 well plate. The bioluminescence signal was recorded at 1 min intervals over 10 min.

HeLa cells = experiment: MTT assay, HeLa; assay type: cell-based, human; conditions: 24 h
Protocol: Methods: HEK293T cells (concentration of 1.6×10^4 cells per well) and HeLa cells (concentration of 1.2×10^4 cells per well) were seeded to 96-well plate in supplemented DMEM culture medium (10% FBS, 100 U Pen./Strep.) and incubated for 30 h (HEK293T cells) and 16 h (HeLa cells) at +37° C. and 5% CO2. […] After the incubation period, 10 μL of the MTT labeling reagent (final concentration 0.5 mg/ml) was added to each well, and incubated at +37° C. and 5%. 100 μl of the solubilization solution was added into each well, and incubated for 20 h at +37° C. and 5%. Absorbance of the samples was measured by using a microplate reader Tecan Infinite M1000 at 550, and 650 nm. […] In the rest of the samples (10 μM, 1 μM, 100 nM, and 10 nM) concentration of DMSO was at the level of 1%. The controls were prepared: Ctrl—cells cultured only in the supplemented DMEM; Ctrl 5% DMSO—cells cultured in 5% DMSO in the supplemented DMEM; Ctrl 1% DMSO—cells cultured in 1% DMSO in the supplemented DMEM.

SMUG1 = SMUG1 (Homo sapiens (Human), UniProt Q53HV7); experiment: SMUG1 assay; assay type: biochemical; conditions: 20 μM inhibitor
SMUG1, sequence (Q53HV7 whole entry, species assumed): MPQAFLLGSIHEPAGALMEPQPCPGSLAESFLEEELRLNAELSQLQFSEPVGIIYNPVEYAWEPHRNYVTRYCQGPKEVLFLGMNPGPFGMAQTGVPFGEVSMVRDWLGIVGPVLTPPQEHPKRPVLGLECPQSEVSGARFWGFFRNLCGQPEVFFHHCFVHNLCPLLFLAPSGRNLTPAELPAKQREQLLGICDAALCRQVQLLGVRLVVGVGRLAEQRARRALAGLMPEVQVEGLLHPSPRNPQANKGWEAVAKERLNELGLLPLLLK
Protocol: (See, e.g., Ono, T., et al., Nucleic Acids Res. 2013, 41, e127-e127, the disclosure of which is incorporated herein by reference.) Enzyme (500 U/mL) was pre-incubated for 5 minutes with 20 μM inhibitor or vehicle or at 37° C. in 50 mM Tris (pH 7.4), 1 mM DTT and 0.5 mM EDTA. Probe 2 (1 μM) was added and the fluorescent signal was plotted over 15 minutes to calculate initial rate. Inhibitor rates were normalized against the vehicle control rate.

[1] = test system: Caco-2 cells (clone C2BBe1); experiment: CACO-2 permeability assay; assay type: in vitro ADME; conditions: for Recovery: 5 μM, 120 minutes; for Papp AVG: average; for Papp R1: replicate 1
Protocol: Methods: Caco-2 cells (clone C2BBe1) were obtained from American Type Culture Collection (Manassas, Va.). Cell monolayers were grown to confluence on collagen-coated, microporous membranes in 12-well assay plates. Details of the plates and their certification are shown below. The permeability assay buffer was Hanks' balanced salt solution containing 10 mM HEPES and 15 mM glucose at a pH of 7.4. The buffer in the receiver chamber also contained 1% bovine serum albumin. The dosing solution concentration was 5 μM of test article in the assay buffer. Cell monolayers were dosed on the apical side (A-to-B) or basolateral side (B-to-A) and incubated at 37° C. with 5% CO2 in a humidified incubator. Samples were taken from the donor and receiver chambers at 120 minutes. Each determination was performed in duplicate. The flux of Lucifer yellow was also measured post-experimentally for each monolayer to ensure no damage was inflicted to the cell monolayers during the flux period. All samples were assayed by LC-MS/MS using electrospray ionization.

NUDT16, sequence (Q96DE0 whole entry, species assumed): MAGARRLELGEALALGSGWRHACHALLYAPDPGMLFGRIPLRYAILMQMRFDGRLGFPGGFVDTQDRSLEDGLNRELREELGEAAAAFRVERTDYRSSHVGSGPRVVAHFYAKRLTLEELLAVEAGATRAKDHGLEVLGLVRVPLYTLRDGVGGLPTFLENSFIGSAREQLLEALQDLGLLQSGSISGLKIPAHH

With `NC(=O)c1cccc(-c2ccc(S(=O)(=O)Nc3ccc4c(c3)N(C(=O)C3CC3)CCC4)cc2)c1` [Compound 41] the “NUDT16 enzyme activity in the presence of the inhibitor” value (NUDT16) was about 70%, the “cytotoxicity by MTT assay” value (HeLa cells; 10 nM to 10 μM) was “little or no cytotoxicity” and the “toxicity by MTT assay” value (HeLa cells; 100 μM) was 30-50%. The “SMUG1 enzyme activity in the presence of the inhibitor” value (SMUG1) was about 100%, the Recovery ([1]; A-to-B) was 65% and the “Papp AVG” value ([1]; A-to-B) was 12.5 10^−6 cm/s. For the same compound, the “Papp R1” value ([1]; A-to-B) was 14.2 10^−6 cm/s, the “Efflux Ratio” value ([1]; B-to-A / A-to-B) was 6.2 and the Recovery ([1]; B-to-A) was 79%. The “Papp AVG” value ([1]; B-to-A) was 77.4 10^−6 cm/s and the “Papp R1” value ([1]; B-to-A) was 63.5 10^−6 cm/s.
